{
  "source": "paper PMC3259734",
  "about": "(ACS medicinal chemistry letters, 2011)",
  "key": {"M. tuberculosis H37Rv [1]": {"system": "M. tuberculosis H37Rv", "assay": "DHNA rescue of growth of treated M. tuberculosis", "assay_type": "cell-based, Mycobacterium tuberculosis", "settings": "DHNA 100 μg/ml added to the media; compound at 2xMIC"}, "Cytotoxicity assays": {"assay": "Cytotoxicity assays", "assay_type": "cell-based"}, "MenB [2]": {"target": "T1, MenB (Mycobacterium tuberculosis, UniProt P9WNP5)", "T1 sequence (P9WNP5 whole entry)": "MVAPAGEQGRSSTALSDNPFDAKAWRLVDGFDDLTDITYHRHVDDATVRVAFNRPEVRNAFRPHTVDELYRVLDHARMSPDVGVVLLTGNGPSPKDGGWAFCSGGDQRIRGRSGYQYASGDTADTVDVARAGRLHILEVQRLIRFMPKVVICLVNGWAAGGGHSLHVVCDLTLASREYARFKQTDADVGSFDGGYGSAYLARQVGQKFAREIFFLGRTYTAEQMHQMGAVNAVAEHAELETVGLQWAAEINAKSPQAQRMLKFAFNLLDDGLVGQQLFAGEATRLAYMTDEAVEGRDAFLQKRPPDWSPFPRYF", "assay": "biochemical", "settings": "for ability to inhibit MenB: analogues still able to undergo elimination"}, "M. tuberculosis H37Rv [3]": {"system": "M. tuberculosis H37Rv", "assay": "Antibacterial activity", "assay_type": "cell-based, Mycobacterium tuberculosis", "settings": "in words"}, "MenB [4]": {"target": "T1, MenB", "assay": "Steady state kinetics of MenB inhibition", "assay_type": "biochemical", "settings": "steady state kinetic methods"}, "MenE": {"system": "MenE", "assay": "Direct MenE inhibition assay", "assay_type": "biochemical", "settings": "MenE 100 nM; data not shown"}, "[5]": {"system": "nonreplicating M. tuberculosis (NRP-MTB)", "settings": "against NRP-MTB; cited from earlier work"}},
  "note": "Where “and” joins values, the source holds several entries; their conditions need not be identical. Equal entries are not always repeated.",
  "data": [
    {"smiles": "COC(=O)/C=C/C(=O)c1ccc(F)cc1", "note": "[Compound 2b]", "values": [
      {"measurement": "rescue of growth by DHNA", "setting": "M. tuberculosis H37Rv [1]", "result": "rescue the growth"},
      {"measurement": "selectivity ratio", "setting": "Cytotoxicity assays", "result": "> 20"}
    ]},
    {"smiles": "O=C(O)/C=C/C(=O)c1ccc(Cl)cc1", "note": "[Compound 3a]", "values": [
      {"measurement": "change of IC50 for MenB inhibition with CoA concentration", "setting": "MenB [2]; data not shown", "result": "decreased as the concentration of CoA increased"},
      {"measurement": "antibacterial activity", "setting": "M. tuberculosis H37Rv [3]", "result": "limited antibacterial activity"}
    ]},
    {"smiles": "COC(=O)/C=C/C(=O)c1ccc(Cl)cc1", "note": "[Compound 3b, 4-Oxo-4-chlorophenylbutenoyl methyl ester]", "values": [
      {"measurement": "rescue of growth by DHNA", "setting": "M. tuberculosis H37Rv [1]", "result": "rescue the growth"},
      {"measurement": "selectivity ratio", "setting": "Cytotoxicity assays", "result": "> 20"}
    ]},
    {"smiles": "CC(C(=O)c1ccc(Cl)cc1)C(N[C@@H](C)c1ccccc1)C(=O)O", "note": "(stereo partly drawn) [Compound 7S]", "values": [
      {"measurement": "ability to inhibit MenB", "setting": "MenB [2]", "result": "retained the ability to inhibit MenB"}
    ]},
    {"smiles": "CC(C)(COP(=O)(O)OP(=O)(O)OC[C@H]1O[C@@H](n2cnc3c(N)ncnc32)[C@H](O)[C@@H]1OP(=O)(O)O)[C@@H](O)C(=O)NCCC(=O)NCCSC(CC(=O)c1ccc(Cl)cc1)C(=O)O", "note": "(stereo partly drawn) [Compound 7]", "values": [
      {"measurement": "mode of MenB inhibition", "setting": "MenB [4]", "result": "noncompetitive (mixed)"}
    ]},
    {"smiles": "[2H]C([2H])(C(=O)c1ccccc1Cl)C(N[C@@H](C)c1ccccc1)C(=O)O", "note": "(stereo partly drawn) [Compound 8S]", "values": [
      {"measurement": "ability to inhibit MenB", "setting": "MenB [2]", "result": "retained the ability to inhibit MenB"}
    ]},
    {"smiles": "CC(C)(COP(=O)(O)OP(=O)(O)OC[C@H]1O[C@@H](n2cnc3c(N)ncnc32)[C@H](O)[C@@H]1OP(=O)(O)O)[C@@H](O)C(=O)NCCC(=O)NCCSC(CC(=O)c1ccccc1Cl)C(=O)O", "note": "(stereo partly drawn) [Compound 10]", "values": [
      {"measurement": "mode of MenB inhibition", "setting": "MenB [4]", "result": "noncompetitive (mixed)"}
    ]},
    {"smiles": "CC(C)(COP(=O)(O)OP(=O)(O)OC[C@H]1O[C@@H](n2cnc3c(N)ncnc32)[C@H](O)[C@@H]1OP(=O)(O)O)[C@@H](O)C(=O)NCCC(=O)NCCSC(CC(=O)c1ccc(Cl)cc1Cl)C(=O)O", "note": "(stereo partly drawn) [Compound 16]", "values": [
      {"measurement": "IC50", "setting": "MenB [2]; IC50, 2-CoA-4-oxo-4-phenylbutanoic acids and analogues, Table 2", "result": "~0.1 µM and 0.1 µM"},
      {"measurement": "mode of MenB inhibition", "setting": "MenB [4]", "result": "noncompetitive (mixed)"}
    ]},
    {"smiles": "CC(C)(COP(=O)(O)OP(=O)(O)OC[C@H]1O[C@@H](n2cnc3c(N)ncnc32)[C@H](O)[C@@H]1OP(=O)(O)O)[C@@H](O)C(=O)NCCC(=O)NCCSCCC(=O)c1ccc(Cl)cc1Cl", "note": "[Compound 18]", "values": [
      {"measurement": "concentration up to which MenB was not (significantly) inhibited", "setting": "MenB [2]", "result": "> 400", "unit": "µM"}
    ]},
    {"smiles": "CC(NC(CC(=O)c1ccc(F)cc1)C(=O)O)c1ccccc1", "note": "(stereo not drawn) [Compound 1548L21]", "values": [
      {"measurement": "concentration up to which MenE was not inhibited", "setting": "MenE", "result": "> 300", "unit": "µM"}
    ]},
    {"smiles": "CO[C@H]1/C=C/O[C@@]2(C)Oc3c(C)c(O)c4c(O)c(c(/C=N/N5CCN(C)CC5)c(O)c4c3C2=O)NC(=O)/C(C)=C\\C=C\\[C@H](C)[C@H](O)[C@@H](C)[C@@H](O)[C@@H](C)[C@H](OC(C)=O)[C@@H]1C", "note": "[rifampicin]", "values": [
      {"measurement": "MIC", "setting": "[5]", "result": 0.4, "unit": "mg/L"}
    ]}
  ]
}
